From patent publication US20260092085A1, “SYNTHETIC TRIPLEX PEPTIDE NUCLEIC ACID-BASED INHIBITORS FOR CANCER THERAPY” (University of Connecticut, priority 2022, published 2026)

Experiments:
[1] = tested on: SUDHL-2 cells; test: Cell viability by trypan blue assay, SUDHL-2; assay type: cell-based; conditions: SUDHL-2, in comparison to PBS treated control cells
Experimental: (§1) Cell viability was performed using trypan blue-based assay (n=3 technical triplicate), data represented as mean±(SEM), * represents the statistical analysis were performed relative to Scr-γtcPNA-155 and ♦ represent analysis performed relative to PNA-155. *p<0.05, **p<0.01, ***p<0.001 and ****p<0.0001, ♦p<0.05, ♦♦p<0.01, unpaired two-tailed t-test was used for statistical analysis. The experiment was repeated three times and in triplicate.
(§2) Cell viability was performed using trypan blue-based assay (n=3), data represented as mean±standard error mean (SEM), *p<0.05, **p<0.01. Unpaired two-tailed t-test was used for statistical analysis.
(§3) Cell viability was performed using trypan blue-based assay (n=3), data represented as mean±standard error mean (SEM).
(§4) Cell viability by trypan blue assay: Diffused large B cell lymphoma (DLBCL) cell lines like SUDHL-2 (ATCC® CRL-2956™) and SUDHL-5 (ATCC® CRL-2958™) cells were purchased from ATCC (Virginia, USA). The cells were regularly tested for Mycoplasma contamination using MycoAlert™ Mycoplasma detection kit (Lonza). All the cells used in the experiment were passaged less than 8 times. 10,000 U2932, SUDHL-5, or SUDHL-2 cells were plated in a 96 well plate. The cells were treated with different doses (500 nM, 1000 nM, 2000 nM and 4000 nM) of PNA-155, gamma tcPNA-155 or Scr-γtcPNA-155 for 48 hrs in an incubator (37° C. and 5% CO2). The dead cells were marked with trypan blue. Further counting was performed using an automated cell counter (Bio-rad).

[2] = tested on: U2932 subcutaneous tumors; test: Tumor growth in U2932 derived xenograft model; assay type: in vivo, NSG mice; conditions: intra-tumoral injections days 0, 7, 14
Experimental: Mouse tumor xenograft: Female NSG mice (NOD.Cg-Prkdcscid Il2rgtm1Wjl/SzJ, strain 005557) weighing 20-23 g were procured from Jackson laboratories. 1×10^7 U2932 cells suspended in RPMI-1640 medium were injected subcutaneously in the right and left flank of 6-week-old NSG mice. The mice developed a small bump in 2 weeks. When the tumor volume reached 100-200 mm^3, the mice were randomly assigned to the treatment group (n=6 per group).
(§5) RNA and Protein extraction from tumor samples: The mice were injected intra-tumorally with 1 mg kg-1 dose of PNA-155, γtcPNA-155, γPNA-155, Scr-γtcPNA-155 or were untreated. The injections were repeated two additional times after 1 week each. The length, breadth, and depth of the tumors were measured daily using a vernier caliper. The mice were euthanized when the tumor volumes reached 2000 mm^3. The resected tumor sections were finely minced using a sterile blade and suspended in dissociation media (4 ml) comprising of RPMI-1640, 1.2 mg/ml dispase, and 0.5 mg/ml collagenase for 90 mins at 500 rpm at 37° C. The dissociated tumors were washed with buffer saline at 2500 rpm (4 mins) at 4° C. and then suspended in 0.25% trypsin for 4 mins at room temperature. RPMI 1640 media was added to the trypsinized tumor mass, and the cells were passed through a 70 um filter. The cells were centrifuged at 2500 rpm for 4 mins at 4° C. The cell pellet was then suspended in 1×RBC lysis buffer (Sigma) and incubated on ice for 10 mins. PBS was added to the cells and the cells were passed through a 40 um filter. The cells were centrifuged at 2500 rpm for 4 mins at 4° C. The cell pellet was resuspended in 0.5% BSA in PBS. The mouse cells were removed from the tumor cells using a mouse cell depletion kit (Miltenyi Biotec) according to the manufacturer's protocol. The enriched tumor cells from each tumor sample were divided into two fractions. RNA for gene expression analysis was extracted from one tumor fraction by the same procedure as mentioned earlier. The protein for western blot analysis was extracted from the second fraction using the method described above.
For the efficacy study, each mouse received three intra-tumoral injections of either γtcPNA-155, γPNA-155 or PNA-155 on days 0, 7, 14. We noticed that the control and scrambled treated tumors reached 2000 mm^3 much faster during our study, so we could not inject a third time in these mice. […] In contrast, as stated earlier, there was no effect on the control and scrambled PNA control on the tumor volume.

[3] = tested on: miR-155 downstream genes; test: Downstream gene expression and protein levels in U2932 tumor samples; assay type: in vivo, NSG mice; conditions: U2932 xenograft
Experimental: (§6) FIGS. 22A-D show in vivo gene expression and protein level analysis. (22A) miR-155 gene expression levels in U2932 tumor samples after in vivo treatment with indicated PNAs. Data was normalized with average control U6 (n=4, data represented as mean±standard error mean). ***p<0.001 (22B) Gene expression level of downstream target genes of miR-155: MCL1 in U2932 tumor samples after treatment with total 3 mg kg-1 dose of Scr-γtcPNA-155, PNA-155, γPNA-155 and γtcPNA-155 and normalized with average control GAPDH (n=3, data represented as mean±SEM), unpaired two-tailed t-test was performed for analysis). *p<0.05, **p<0.01 (22C) Representative western blot of Mcl-1 protein and its quantification (n=3 technical replicate) in U2932 tumor samples treated with total 3 mg kg-1 dose of Scr-γtcPNA-155, PNA-155 and γtcPNA-155. Data is represented as mean±SEM and unpaired two-tailed t-test was performed for analysis. *p<0.05. The relative protein levels were determined from the band intensity using ImageJ software and normalized relative to loading control and treatment control. (22D) Gene expression level of tumor suppressor proteins (FOXO3A, CUX1, SOCS1, CSF1R, JARID2, SHIP1, PICALM, PDCD4, BACH1, CASP3) in U2932 tumor samples after treatment with total 3 mg kg-1 dose of Scr-γtcPNA-155, PNA-155, γPNA-155 and γtcPNA-155 and normalized with average control GAPDH (n=3, data represented as mean±SEM, unpaired two-tailed t-test was performed for statistical analysis). *p<0.05, **p<0.01.
Data is represented as mean±SEM and unpaired t-test was used for statistical analysis *p<0.05. The relative protein levels were determined from the band intensity using ImageJ software and normalized relative to loading control and treatment control.
Data is represented as mean±SEM and unpaired t-test was used for statistical analysis.
Data is represented as mean±SEM and unpaired t-test was used for statistical analysis. The relative protein levels were determined from the band intensity using ImageJ software and normalized relative to loading control and treatment control.
as §5

[4] = tested on: PBMC cells; test: Safety assessment by trypan blue assay in PBMC; assay type: cell-based; conditions: 500-4000 nM, 48 hours
Experimental: Control is PBS treated PBMC cells. n=3, data represented as mean±standard error mean (SEM).
Safety assessment by trypan blue assay […] blood mononuclear cells (PBMC) (ATCC® PCS-800-011™) were purchased from ATCC (Virginia, USA). The cells were regularly tested for Mycoplasma contamination using MycoAlert™ Mycoplasma detection kit (Lonza). All the cells used in the experiment were passaged less than 2 times. 10,000 PBMC cells were seeded in a 96 well plate. The cells were treated with 500 nM, 1000 nM, 2000 nM and 4000 nM PNA-155 and γtcPNA-155 for 48 hrs in an incubator. The dead cells were examined with trypan blue and further counted using an automated cell counter (Bio-rad).

[5] = tested on: miR-155; test: miR-155 gene expression in U2932 tumor samples after in vivo treatment; set-up: species or system NSG mice; conditions: U2932 xenograft
Experimental: as §6
as §5, with “The mouse cells were removed from the tumor cells using a mouse cell depletion kit (Miltenyi Biotec) according to the manufacturer's protocol. The enriched tumor cells from each tumor sample were divided into two fractions. RNA for gene expression analysis was extracted from one tumor fraction by the same procedure as mentioned earlier. The protein for western blot analysis was extracted from the second fraction using the method described above.” left out

[6] = tested on: SUDHL-5 cells; test: Cell viability by trypan blue assay, SUDHL-5; assay type: cell-based; conditions: SUDHL-5, in comparison to PBS treated control cells
Experimental: as §1, §2, §3, §4

[7] = tested on: U2932 cells; test: Cell viability by trypan blue assay, U2932; assay type: cell-based, human; conditions: U2932, in comparison to PBS treated control cells
Experimental: as §1, §2, §3, §4

[8] = tested on: miR-155 downstream genes; test: Gene expression of miR-155 downstream genes by RT-PCR in U2932 cells; assay type: cell-based, human; conditions: U2932, 500 nM, 48 hours
Experimental: (§7) FIGS. 3A-F show cell culture-based functional assay in U2932 lymphoma cells. (3A) γtcPNA-155-TAMRA uptake in the U2932 lymphoma cell line: Representative flow cytometry traces of TAMRA fluorescence in U2932 cells after treatment with 500 nM dose of γtcPNA-155-TAMRA for 48 hours. The data was analyzed by FlowJo software. (3B) Normalized miR-155 gene expression levels in U2932 after treatment with phosphate buffer saline (PBS) as a control and with 500 nM dose of Scr-γtcPNA-155, PNA-155, γPNA-155 and γtcPNA-155 for 48 hours compared to average control U6 (n=3), data represented as mean±standard error mean (SEM), Statistical analysis was performed using Unpaired two-tailed t-test. Further, statistical analysis was performed relative to Scr-γtcPNA-155 treated cells. ***p<0.001. (3C) Gene expression level of miR-155 downstream genes, tumor suppressor proteins (FOXO3A, CUX1, SOCS1, CSF1R, JARID2, SHIP1, PICALM, PDCD4, BACH1, WEE1, TP53TG3, CASP3, PTEN) in U2932 cell line after treatment with PBS as a control and with after treatment with 500 nM of Scr-γtcPNA-155, PNA-155, γPNA-155 and γtcPNA-155 for 48 hours. Data is normalized with average GAPDH control (n=3), and represented as mean±SEM, *p<0.05. Unpaired two-tailed t-test was used for statistical analysis and analysis was performed relative to Scr-γtcPNA-155 treated cells. (3D) Gene expression level of miR-155 downstream genes MCL1 in U2932 cell line after treatment with PBS as a control and 500 nM of Scr-γtcPNA-155, PNA-155, γPNA-155 and γtcPNA-155 for 48 hours. Data is normalized with average GAPDH control (n=3), and represented as mean±SEM, *p<0.05, **p<0.01 and ***p<0.001. Statistical analysis was performed using Unpaired two-tailed t-test. Analysis was performed relative to Scr-γtcPNA-155 treated cells. (3E) Representative western blot of Mcl-1 and its quantification (n=3 technical replicate) and (3F) Caspase-3 protein and its quantification (n=3 technical replicate) in U2932 cell line after treatment with 500 nM of Scr-γtcPNA-155, PNA-155 and γtcPNA-155 for 48 hours. Data is represented as mean±SEM and unpaired two-tailed t-test was used for statistical analysis. *p<0.05 **p<0.01. Numbers above western blot panels represent relative quantification of the respective bands using ImageJ software and normalized relative to loading control and treatment control.
Gene expression by RT-PCR: 400,000 U2932 cells were seeded in a 12 well plate. The cells were treated with 500 nM PNA-155, gamma tcPNA-155, gamma PNA-155, Scr gamma tcPNA-155 or were PBS treated (control) for 48 hrs in an incubator (37° C. and 5% CO2). The cells were centrifuged at 2000 rpm for 4 mins at 4° C. The total RNA from the cell pellet was extracted using RNeasy® mini kit (Qiagen). The cDNA was prepared in thermal cycler (Bio-rad) using reverse transcriptase, RNase inhibitor, dNTPs, nuclease-free water and RT primers specific for miR-155 and U6. Random primers were used for the preparation of cDNA for downstream targets. The cDNA was amplified using miR-155 assay, U6 assay, or specific downstream target assays in CFX Connect™ Real-time PCR detection system (Bio-rad). The samples were subjected to polymerase activation (95° C. for 10 mins), followed by 40 cycles of denaturation (95° C. for 15 sec) and annealing (60° C. for 1 min). The 2^−ΔΔCT method was used to calculate the fold change in target genes.

[9] = tested on: miR-155; test: miR-155 gene expression by RT-PCR in U2932 cells; assay type: cell-based, human; conditions: U2932, 500 nM, 48 hours, relative to scrambled control
Experimental: as §7, with “Statistical analysis was performed using Unpaired two-tailed t-test. Analysis was performed relative to Scr-γtcPNA-155 treated cells.” left out, “Data is represented as mean±SEM and unpaired two-tailed t-test was used for statistical analysis. *p<0.05 **p<0.01.” left out, “control. […]” for “control.”

[10] = tested on: U2932 lymphoma cell line; conditions: U2932, 10 uM; cited from earlier work

Substance | effect on cell viability [1] | tumor growth / tumor volume [2] | alteration in gene expression in tumors [3] | Mcl-1 protein level in tumors ([3]; western blot) | viability of PBMC cell lines [4] | miR-155 expression level in tumors (change) [5] | effect on cell viability [6] | effect on cell viability [7] | de-repression of miR-155 target tumor suppressor genes [8] | reduction in MCL1 gene expression levels [8] [%] | miR-155 inhibition [9] [%] | decrease in miR-155 gene expression in tumors ([5]; intra-tumoral) [%] | increase in apoptosis compared to control [10] [fold]
Scr-γtcPNA-155: scrambled γtcPNA-155 synthesized as a control, SEQ ID NO: 4 (ACNTGCCATTNCACGAACNCT; gamma PNA backbone; scramble sequence; misc_feature 1 Arg-Arg-adenine-thymine-pseudoisocytosine-thymine -adenine-11-amino-3,6,9-trioxaundecanoic acid covalently linked to the backbone; modified_base 3 OTHER; n is pseudoisocytosine; modified_base 11 OTHER; misc_feature 21 Arg-Arg covalently linked to the backbone; modified_base 19 OTHER; modified_base 1..21 OTHER; peptid) [reference compound] | did not notice any effect on cell viability | no effect | did not notice any alteration | did not notice any alteration | do not cause any non-specific effects | did not observe a change | did not notice any effect on cell viability | did not notice any effect on cell viability | – | – | – | – | –
γPNA-155: single-stranded full-length serine gamma PNA binding miR-155 by Watson-Crick pairing, SEQ ID NO: 1 (ACCCCTATCACGATTAGCATTAA; all peptide nucleic acid (PNA); serine gamma-PNA, two arginine residues (X1 RR) at each terminus, further chemistry not fully specified) | – | reduced the tumor growth | – | – | – | – | – | – | significant de-repression | 19 | ~83 | 80 | –
cobomarsen | – | – | – | – | – | – | – | – | – | – | – | – | 4
